Experimental data from ChEMBL document CHEMBL1201862, “PubChem BioAssay data set” (2004).
Active and inactive are the calls of the source.

Key:
[1] = Luminescence Cell-Based Dose Response HTS to Identify Inhibitors of 5'UTR Stem-Loop Driven Prion Protein mRNA Translation in H4 Neuroglioblastoma Cells. [Related pubchem assays: 1827 (Project Summary), 1813 (Primary HTS)]; format: functional
[2] = alpha-synuclein stem-loop luciferase translation blockers – H4 neuroglioma cells, luminescence, confirmation (AID 1988); format: functional, cell-based
[3] = Luminescence-based counterscreen assay for KLF5 inhibitors: dose response cell-based high throughput screening assay to identify cytotoxic compounds using the IEC-6 intestinal epithelial cell line. [Related pubchem assays: 1700 (Primary screen.), 1834 (Confirmation screen.), 1858 (Summary AID.), 1905 (Counterscreen.)]; format: functional
[4] = target: T1, Luciferin 4-monooxygenase (Photinus pyralis, UniProt P08659); assay: Counter Screen for Luciferase-based Assay Positives. [Related pubchem assays: 620, 618, 411 ]
T1 sequence (P08659 whole entry): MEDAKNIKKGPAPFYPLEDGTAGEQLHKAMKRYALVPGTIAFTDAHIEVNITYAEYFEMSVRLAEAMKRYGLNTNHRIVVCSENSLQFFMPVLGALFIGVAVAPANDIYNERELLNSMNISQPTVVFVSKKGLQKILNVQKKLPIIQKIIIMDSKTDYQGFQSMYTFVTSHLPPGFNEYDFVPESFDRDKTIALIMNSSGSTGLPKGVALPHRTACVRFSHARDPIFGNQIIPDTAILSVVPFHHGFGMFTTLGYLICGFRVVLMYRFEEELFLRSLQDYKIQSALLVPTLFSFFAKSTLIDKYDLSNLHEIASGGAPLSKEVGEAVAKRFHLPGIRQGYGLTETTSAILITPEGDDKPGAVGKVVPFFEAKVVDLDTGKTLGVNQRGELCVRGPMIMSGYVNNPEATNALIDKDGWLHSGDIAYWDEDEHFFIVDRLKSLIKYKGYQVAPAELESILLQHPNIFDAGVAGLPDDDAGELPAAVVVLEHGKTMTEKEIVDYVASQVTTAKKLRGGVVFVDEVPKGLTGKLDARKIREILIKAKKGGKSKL

[5] = target: T1, Luciferin 4-monooxygenase; assay: inhibition of purified Photinus pyralis luciferase – biochemical, luminescence, dose response (AID 1891)
[6] = Luminescence Cell-Based Dose Confirmation HTS to Identify Inhibitors of Platelet Dense Granule Release. [Related pubchem assays: 1663 (Primary HTS), 1678 (Summary of Project)]; format: functional
[7] = tested on: HT-1080; assay: HT1080 cell viability loss – fluorescence readout (AID 620); format: functional, cell-based; details: Homo sapiens
[8] = target: T2, RNA-binding protein pos-1 (Caenorhabditis elegans, UniProt G5EF15); assay: disruptors of C. elegans POS-1 RNA interaction – biochemical, fluorescence polarization, dose response (AID 1964);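 also: purified POS-1 fused to maltose binding protein made in E. coli; potency of compounds blocking POS-1 binding to fluorescent RNA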
T2 sequence (G5EF15 whole entry): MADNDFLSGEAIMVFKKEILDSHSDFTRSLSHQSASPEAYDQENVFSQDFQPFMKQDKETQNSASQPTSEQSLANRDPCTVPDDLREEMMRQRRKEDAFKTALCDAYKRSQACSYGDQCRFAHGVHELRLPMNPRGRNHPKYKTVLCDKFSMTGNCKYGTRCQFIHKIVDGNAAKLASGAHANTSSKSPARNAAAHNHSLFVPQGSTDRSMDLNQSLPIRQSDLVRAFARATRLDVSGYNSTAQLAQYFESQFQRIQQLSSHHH

[9] = target: T3, Zinc finger protein mex-5 (Caenorhabditis elegans, UniProt Q9XUB2); assay: potency of MEX-5 RNA-binding blockers – biochemical, C. elegans, fluorescence polarization, dose response (AID 1960)
T3 sequence (Q9XUB2 whole entry): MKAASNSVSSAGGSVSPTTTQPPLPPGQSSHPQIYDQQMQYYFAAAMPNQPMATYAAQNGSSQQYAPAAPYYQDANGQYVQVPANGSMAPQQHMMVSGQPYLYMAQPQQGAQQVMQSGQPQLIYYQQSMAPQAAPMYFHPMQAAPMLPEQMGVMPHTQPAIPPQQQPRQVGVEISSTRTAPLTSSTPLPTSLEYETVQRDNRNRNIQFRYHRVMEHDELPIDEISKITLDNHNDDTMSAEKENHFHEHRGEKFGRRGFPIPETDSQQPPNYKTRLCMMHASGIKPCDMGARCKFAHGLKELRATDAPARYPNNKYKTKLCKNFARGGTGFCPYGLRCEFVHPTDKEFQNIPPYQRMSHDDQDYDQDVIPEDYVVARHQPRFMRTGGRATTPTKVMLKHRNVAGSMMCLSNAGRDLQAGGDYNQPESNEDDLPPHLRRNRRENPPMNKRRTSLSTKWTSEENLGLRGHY

[10] = target: T4, Voltage-gated N-type calcium channel alpha-1B subunit/Amyloid beta A4 precursor protein-binding family A member 1 (Homo sapiens, UniProt Q00975+Q02410); format: protein assay
T4 sequence (Q00975 whole entry): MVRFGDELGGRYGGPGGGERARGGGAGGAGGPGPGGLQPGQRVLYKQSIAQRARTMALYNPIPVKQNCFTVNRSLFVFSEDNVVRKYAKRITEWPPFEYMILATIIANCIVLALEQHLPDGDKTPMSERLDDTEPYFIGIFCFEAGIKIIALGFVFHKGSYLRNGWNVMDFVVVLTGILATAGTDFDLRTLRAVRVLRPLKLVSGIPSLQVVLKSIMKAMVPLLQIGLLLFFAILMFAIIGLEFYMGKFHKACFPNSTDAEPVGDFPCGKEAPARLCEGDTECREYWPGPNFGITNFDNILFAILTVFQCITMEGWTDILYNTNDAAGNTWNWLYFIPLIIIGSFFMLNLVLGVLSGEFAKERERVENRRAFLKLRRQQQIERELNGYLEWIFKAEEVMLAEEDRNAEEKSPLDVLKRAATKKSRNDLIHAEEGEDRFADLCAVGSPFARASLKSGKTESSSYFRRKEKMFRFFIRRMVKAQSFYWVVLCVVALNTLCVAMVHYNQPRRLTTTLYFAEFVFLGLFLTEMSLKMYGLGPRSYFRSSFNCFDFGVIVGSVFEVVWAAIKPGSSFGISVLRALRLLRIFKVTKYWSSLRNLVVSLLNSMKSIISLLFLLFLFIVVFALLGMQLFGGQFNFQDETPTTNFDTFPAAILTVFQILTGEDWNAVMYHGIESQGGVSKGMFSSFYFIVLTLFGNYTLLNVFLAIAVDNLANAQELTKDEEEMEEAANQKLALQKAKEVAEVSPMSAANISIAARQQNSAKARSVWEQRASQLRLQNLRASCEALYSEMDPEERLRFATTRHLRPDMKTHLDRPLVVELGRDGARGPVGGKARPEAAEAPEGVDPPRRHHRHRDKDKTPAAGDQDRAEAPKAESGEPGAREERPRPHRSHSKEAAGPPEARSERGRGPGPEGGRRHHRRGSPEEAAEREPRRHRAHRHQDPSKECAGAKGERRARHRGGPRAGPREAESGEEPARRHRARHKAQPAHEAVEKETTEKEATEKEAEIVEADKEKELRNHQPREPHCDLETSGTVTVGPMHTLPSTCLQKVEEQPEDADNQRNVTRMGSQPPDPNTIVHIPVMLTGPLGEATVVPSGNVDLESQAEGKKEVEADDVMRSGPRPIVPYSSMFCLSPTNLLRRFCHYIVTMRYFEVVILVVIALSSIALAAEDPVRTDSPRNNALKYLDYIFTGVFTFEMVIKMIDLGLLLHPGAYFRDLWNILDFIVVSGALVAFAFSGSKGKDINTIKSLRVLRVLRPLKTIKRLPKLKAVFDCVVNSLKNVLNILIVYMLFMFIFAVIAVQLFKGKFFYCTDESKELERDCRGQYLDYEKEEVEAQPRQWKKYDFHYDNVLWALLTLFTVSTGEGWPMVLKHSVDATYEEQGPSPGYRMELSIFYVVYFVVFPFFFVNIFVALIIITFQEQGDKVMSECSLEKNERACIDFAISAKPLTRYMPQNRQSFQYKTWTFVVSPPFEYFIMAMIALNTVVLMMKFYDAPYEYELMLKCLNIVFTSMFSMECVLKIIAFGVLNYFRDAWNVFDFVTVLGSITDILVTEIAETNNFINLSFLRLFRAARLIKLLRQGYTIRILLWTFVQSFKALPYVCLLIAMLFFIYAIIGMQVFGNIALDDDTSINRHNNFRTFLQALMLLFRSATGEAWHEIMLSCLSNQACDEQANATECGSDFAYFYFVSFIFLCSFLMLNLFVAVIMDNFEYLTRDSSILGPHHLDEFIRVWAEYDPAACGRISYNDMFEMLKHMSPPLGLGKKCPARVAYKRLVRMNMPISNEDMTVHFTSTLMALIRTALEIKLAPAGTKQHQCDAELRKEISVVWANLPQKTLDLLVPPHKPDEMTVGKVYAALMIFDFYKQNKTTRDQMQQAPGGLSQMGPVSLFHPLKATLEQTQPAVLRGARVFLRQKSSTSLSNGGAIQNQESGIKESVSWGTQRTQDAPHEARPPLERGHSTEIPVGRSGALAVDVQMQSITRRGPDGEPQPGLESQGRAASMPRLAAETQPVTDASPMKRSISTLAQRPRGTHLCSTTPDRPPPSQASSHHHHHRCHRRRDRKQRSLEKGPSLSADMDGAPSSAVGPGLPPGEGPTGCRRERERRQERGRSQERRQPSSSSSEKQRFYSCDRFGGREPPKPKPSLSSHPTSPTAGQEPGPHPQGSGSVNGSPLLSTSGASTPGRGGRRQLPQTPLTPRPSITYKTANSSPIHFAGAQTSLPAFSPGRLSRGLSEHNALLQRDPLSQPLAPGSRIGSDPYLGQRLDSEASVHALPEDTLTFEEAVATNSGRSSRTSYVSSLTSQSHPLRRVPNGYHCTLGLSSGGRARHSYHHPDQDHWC
T4 sequence (Q02410 whole entry): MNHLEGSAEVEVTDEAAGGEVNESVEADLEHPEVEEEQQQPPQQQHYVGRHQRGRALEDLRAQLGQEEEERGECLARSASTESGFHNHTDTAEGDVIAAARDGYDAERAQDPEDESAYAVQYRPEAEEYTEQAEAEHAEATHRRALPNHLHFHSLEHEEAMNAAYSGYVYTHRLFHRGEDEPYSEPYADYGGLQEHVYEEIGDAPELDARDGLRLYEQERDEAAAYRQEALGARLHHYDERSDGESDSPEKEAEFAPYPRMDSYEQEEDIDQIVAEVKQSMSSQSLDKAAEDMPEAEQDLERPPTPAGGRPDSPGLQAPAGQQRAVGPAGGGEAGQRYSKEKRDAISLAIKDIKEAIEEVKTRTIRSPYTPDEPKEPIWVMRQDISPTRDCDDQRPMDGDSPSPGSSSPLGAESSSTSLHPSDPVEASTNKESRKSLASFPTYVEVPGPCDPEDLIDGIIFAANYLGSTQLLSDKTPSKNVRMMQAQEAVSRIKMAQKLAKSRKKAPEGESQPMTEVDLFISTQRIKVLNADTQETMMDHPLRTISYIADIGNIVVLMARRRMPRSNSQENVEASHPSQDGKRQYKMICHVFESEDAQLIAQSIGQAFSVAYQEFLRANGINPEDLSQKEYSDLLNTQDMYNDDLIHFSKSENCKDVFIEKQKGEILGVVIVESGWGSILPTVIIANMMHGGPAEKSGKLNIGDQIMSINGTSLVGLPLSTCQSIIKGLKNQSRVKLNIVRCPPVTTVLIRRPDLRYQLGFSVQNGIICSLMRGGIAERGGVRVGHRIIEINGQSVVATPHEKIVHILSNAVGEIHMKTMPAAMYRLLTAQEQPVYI

[11] = target: T4, Voltage-gated N-type calcium channel alpha-1B subunit/Amyloid beta A4 precursor protein-binding family A member 1; format: protein assay; remark: listed apart in the source
[12] = target: Induced myeloid leukemia cell differentiation protein Mcl-1 (Homo sapiens, UniProt Q07820); assay: blockers of MCL1 binding to BIM peptide – biochemical, fluorescence polarization, BIM-BH3 peptide, 1536-well, dose response (AID 2217)
[13] = target: Bcl-2-like protein 1 (Homo sapiens, UniProt Q07817); assay: blockers of BCLXL peptide binding – biochemical, fluorescence polarization, 1536-well, selectivity assay for MCL1 inhibitor project, dose response (AID 2218)
[14] = target: T5, Hexokinase HKDC1 (Homo sapiens, UniProt Q2TB90); assay: inhibition of HKDC1 glucose phosphorylation – biochemical, W721R variant, dose response (AID 504729); format: functional
T5 sequence (Q2TB90 whole entry): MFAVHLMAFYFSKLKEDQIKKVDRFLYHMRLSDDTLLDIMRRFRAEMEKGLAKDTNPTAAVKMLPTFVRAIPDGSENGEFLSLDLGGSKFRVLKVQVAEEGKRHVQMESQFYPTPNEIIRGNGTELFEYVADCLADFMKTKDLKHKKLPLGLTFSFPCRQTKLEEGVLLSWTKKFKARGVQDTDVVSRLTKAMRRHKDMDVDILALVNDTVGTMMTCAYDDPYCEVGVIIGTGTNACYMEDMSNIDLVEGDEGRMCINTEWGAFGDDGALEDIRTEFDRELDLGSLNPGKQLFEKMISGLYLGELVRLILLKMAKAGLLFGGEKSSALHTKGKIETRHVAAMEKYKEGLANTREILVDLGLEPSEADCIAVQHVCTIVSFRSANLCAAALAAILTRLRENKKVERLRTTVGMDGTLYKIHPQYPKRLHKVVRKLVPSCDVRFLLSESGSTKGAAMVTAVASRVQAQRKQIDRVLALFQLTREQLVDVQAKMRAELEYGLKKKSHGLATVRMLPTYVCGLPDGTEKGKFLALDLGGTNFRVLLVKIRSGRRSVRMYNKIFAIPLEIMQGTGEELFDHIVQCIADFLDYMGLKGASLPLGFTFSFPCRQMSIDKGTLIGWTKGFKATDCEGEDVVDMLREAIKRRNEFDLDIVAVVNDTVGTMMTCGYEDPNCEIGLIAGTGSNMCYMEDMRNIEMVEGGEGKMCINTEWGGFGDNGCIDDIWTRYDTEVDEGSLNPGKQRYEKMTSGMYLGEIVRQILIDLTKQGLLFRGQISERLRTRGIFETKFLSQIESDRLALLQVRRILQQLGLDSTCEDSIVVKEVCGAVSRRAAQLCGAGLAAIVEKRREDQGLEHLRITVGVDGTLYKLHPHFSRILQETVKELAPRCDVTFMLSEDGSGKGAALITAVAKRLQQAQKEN

[15] = target: DNA (cytosine-5)-methyltransferase 1 (Homo sapiens, UniProt P26358); assay: inhibition of DNA methylation by DNMT1 – biochemical, fluorescent molecular beacon, confirmation (AID 602386); format: functional
[16] = CCR5-tropic HIV-1 fusion blockers – cell-based, CCR5-tropic Env, dose response (AID 2279); format: functional
[17] = tested on: Vero; assay: viability of Vero cells under compound – cytotoxicity control for flavivirus capping enzyme inhibitors (AID 588742); format: functional; details: Chlorocebus sabaeus
[18] = target: Genome polyprotein (dengue virus type 2, UniProt P29990); assay: flavivirus cap methylation enzyme inhibition – biochemical, confirmation dose response, primary screen (AID 588689); format: functional
[19] = target: T6, Bcl-2-like protein 10 (Homo sapiens, UniProt Q9HD36); assay: Concentration-response of Bcl-B inhibitors by biochemical FP with TR3 (AID 1243); format: functional
T6 sequence (Q9HD36 whole entry): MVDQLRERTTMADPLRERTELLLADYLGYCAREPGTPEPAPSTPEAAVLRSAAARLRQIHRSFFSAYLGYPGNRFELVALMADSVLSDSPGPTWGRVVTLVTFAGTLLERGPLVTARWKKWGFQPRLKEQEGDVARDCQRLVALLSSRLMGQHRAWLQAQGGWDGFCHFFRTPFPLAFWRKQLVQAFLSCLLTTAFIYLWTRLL

[20] = target: T7, Estrogen receptor (Homo sapiens, UniProt P03372); assay: blockers of SRC-3 recruitment to ERα – biochemical, ELISA, streptavidin-HRP readout, orthogonal assay, confirmation (AID 1079)
T7 sequence (P03372 whole entry): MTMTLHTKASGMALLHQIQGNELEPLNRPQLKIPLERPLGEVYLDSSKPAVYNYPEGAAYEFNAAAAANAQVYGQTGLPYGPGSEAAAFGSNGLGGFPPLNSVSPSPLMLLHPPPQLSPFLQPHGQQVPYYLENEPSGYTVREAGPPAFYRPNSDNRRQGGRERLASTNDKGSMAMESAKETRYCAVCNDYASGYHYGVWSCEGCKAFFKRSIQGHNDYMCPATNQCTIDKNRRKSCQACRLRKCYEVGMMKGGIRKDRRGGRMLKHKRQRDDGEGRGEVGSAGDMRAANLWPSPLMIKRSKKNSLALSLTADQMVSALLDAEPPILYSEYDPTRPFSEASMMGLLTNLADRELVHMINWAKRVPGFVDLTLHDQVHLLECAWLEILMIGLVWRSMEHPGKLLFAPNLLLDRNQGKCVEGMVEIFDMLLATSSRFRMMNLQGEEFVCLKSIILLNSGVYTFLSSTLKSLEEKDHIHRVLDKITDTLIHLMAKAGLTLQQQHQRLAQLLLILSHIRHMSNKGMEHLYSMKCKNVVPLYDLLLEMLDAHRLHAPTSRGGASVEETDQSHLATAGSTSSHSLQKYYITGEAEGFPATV

[21] = Luminescence Cell-Based Dose Confirmation HTS to Identify Activators of 5'UTR Stem-Loop Driven Alpha-Synuclein mRNA Translation in H4 Neuroglioblastoma Cells. [Related pubchem assays: 1829 (Project Summary), 1814 (Primary HTS)]; format: functional
[22] = Luminescence Cell-Based Dose Response HTS to Identify Activators of Luciferase Translation or Activity in H4 […] Cells. [Related pubchem assays: 1829 (Project Summary), 1814 (Primary HTS)]; format: functional
[23] = tested on: H4; assay: Luminescence Cell-Based Dose Response HTS to Identify Activators of 5'UTR Stem-Loop Driven Prion Protein mRNA Translation in H4 Neuroglioblastoma Cells. [Related pubchem assays: 1829 (Project Summary), 1814 (Primary HTS)]; format: functional; details: Homo sapiens
[24] = target: 5-hydroxytryptamine receptor 1E (Homo sapiens, UniProt P28566); assay: Counterscreen assay for S1P3 antagonists: Dose response cell-based high throughput screening assay to identify antagonists of the 5-Hydroxytryptamine Receptor Subtype 1E (5HT1E). [Related pubchem assays: 1429, 485 ]; format: functional
[25] = target: Sphingosine 1-phosphate receptor 3 (Homo sapiens, UniProt Q99500); assay: Dose response cell-based high throughput screening assay for antagonists of the Sphingosine 1-Phosphate Receptor 3 (S1P3). [Related pubchem assays: 1429, 485 ]; format: functional
Sequence of Sphingosine 1-phosphate receptor 3 (Q99500 whole entry): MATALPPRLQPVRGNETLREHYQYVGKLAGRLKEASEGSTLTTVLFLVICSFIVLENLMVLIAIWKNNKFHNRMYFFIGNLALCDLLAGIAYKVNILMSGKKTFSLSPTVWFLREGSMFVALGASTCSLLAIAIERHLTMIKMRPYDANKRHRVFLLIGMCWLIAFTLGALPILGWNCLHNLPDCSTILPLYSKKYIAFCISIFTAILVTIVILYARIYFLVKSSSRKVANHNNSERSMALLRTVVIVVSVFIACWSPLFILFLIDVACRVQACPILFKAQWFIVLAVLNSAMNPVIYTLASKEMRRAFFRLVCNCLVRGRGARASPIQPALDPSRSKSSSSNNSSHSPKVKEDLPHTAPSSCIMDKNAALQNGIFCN

[26] = target: Neurotensin receptor type 1 (Homo sapiens, UniProt P30989); format: functional;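 also: Image-based confirmatory dose-response assay measuring agonist activity at NTR1; NTR1-expressing U2OS osteosarcoma cells imaged for beta-arrestin GFP spot formation; agonist potency where compounds increase beta-arrestin recruitment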
[27] = HEK-293T viability loss after treatment – luminescence, T-cell screen hits, cytotoxicity control for TCR NF-kB inhibitor project, dose response (AID 489026); format: functional, cell-based;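 also: cells exposed to compound about 14 hours before the viability readout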
[28] = tested on: INS1; assay: INS-1E survival protection against cytokine death – cell-based, luminescence, retest, dose response (AID 449756); format: functional; details: Rattus norvegicus;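 also: cell death triggered by IL-1 beta plus TNF-alpha plus IFN-gamma mixture; protective hits raise ATP signal compared with cytokine alone wells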
[29] = toxicity toward HepG2 liver cells – cell-based, plate reader, cherry-pick, antagonist series, cytotoxicity control, dose response (AID 743416); format: functional
[30] = blockers of bursicon-stimulated LGR2 cAMP reporter – cell-based, HEK293, CRE-luciferase reporter, cherry pick, set 2, dose response (AID 743343); format: functional;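 also: transfected cells were stimulated with diluted bursicon conditioned medium after compound addition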
[31] = blockade of melanocortin 4 receptor signaling – cell-based, plate reader, cherry pick, counter-screen for LGR2 antagonist project, dose response (AID 743444); format: functional;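 also: transfected HEK 293 cells stimulated with alpha-MSH peptide; potency of inhibitors of the alpha-MSH evoked signal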
[32] = target: Neuropeptide Y receptor type 1 (Homo sapiens, UniProt P25929); format: functional;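 also: HEK293 cells with a CNG channel challenged with NPY then isoproterenol; potency as antagonist that reverses NPY suppression of cAMP signal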
Sequence of Neuropeptide Y receptor type 1 (P25929 whole entry): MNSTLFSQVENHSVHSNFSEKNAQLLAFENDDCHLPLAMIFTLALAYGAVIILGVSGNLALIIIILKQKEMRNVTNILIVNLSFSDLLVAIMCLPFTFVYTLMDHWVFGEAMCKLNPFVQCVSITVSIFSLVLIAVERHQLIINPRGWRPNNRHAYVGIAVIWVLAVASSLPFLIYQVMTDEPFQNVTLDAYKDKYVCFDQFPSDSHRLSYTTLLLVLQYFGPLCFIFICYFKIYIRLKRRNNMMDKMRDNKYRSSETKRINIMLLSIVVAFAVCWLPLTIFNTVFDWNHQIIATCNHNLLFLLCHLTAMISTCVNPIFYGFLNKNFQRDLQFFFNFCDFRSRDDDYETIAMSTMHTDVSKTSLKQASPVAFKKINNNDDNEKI

[33] = target: Neuropeptide Y receptor type 2 (Homo sapiens, UniProt P49146); format: functional, cell-based;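 also: HEK293 cells expressing the receptor and a CNG channel; stimulus was NPY near EC95 followed by isoproterenol to raise cAMP; antagonist potency measured as restoring cAMP signal that NPY suppresses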
Sequence of Neuropeptide Y receptor type 2 (P49146 whole entry, the tested form may be a part): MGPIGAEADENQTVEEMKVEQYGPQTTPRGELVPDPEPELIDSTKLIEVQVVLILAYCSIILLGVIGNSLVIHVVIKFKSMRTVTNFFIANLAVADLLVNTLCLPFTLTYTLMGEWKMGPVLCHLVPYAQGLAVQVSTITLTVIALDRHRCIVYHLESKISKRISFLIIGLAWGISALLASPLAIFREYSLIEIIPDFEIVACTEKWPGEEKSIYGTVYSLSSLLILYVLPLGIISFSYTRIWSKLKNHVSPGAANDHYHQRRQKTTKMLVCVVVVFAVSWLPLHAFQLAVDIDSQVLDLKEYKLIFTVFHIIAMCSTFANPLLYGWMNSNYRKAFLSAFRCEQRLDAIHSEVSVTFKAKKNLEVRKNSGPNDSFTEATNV

[34] = blockers of HIV-1 envelope-mediated cell-cell fusion – cherry-pick, dose response (AID 652057); format: functional, cell-based
[35] = viability loss in CEM21 cells – cell-based, CellTiter-Glo luminescence, cherry-picked, cytotoxicity control for viral fusion inhibitor project, dose response (AID 652042); format: functional;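 also: potency for signal decrease meaning cytotoxicity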
[36] = off-target signal loss in HeLa-CEM21 co-culture – HeLa F-luc CTL cells, cherry-picked, counter-screen for HIV-1 Env fusion inhibitor project, dose response (AID 652040); format: functional, cell-based;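 also: potency for signal decrease marking cytotoxic or nonspecific inhibition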
[37] = viability loss in CEM21 cells – cell-based, plate reader, dry powder, cytotoxicity control, dose response (AID 687026); format: functional

## CN(C)c1ccc(/C=C/c2nc(O)c3ccccc3n2)cc1
[1]
  EC50: 4.08 µM (active)
[2]
  EC50: 5.96 µM (active)
[3]
  IC50: 32.3 µM (not active)

## Cc1ccsc1/C=C1\CCc2ccccc2C1=O
[4]
  EC50: 0.89 µM (active)
[5]
  EC50: 0.518 µM (active)
[6]
  EC50: 2.43 µM (active)
[7]
  EC50: > 50 µM (not active)

## O=C(CNC(=O)/C=C/c1ccco1)N=Nc1c(O)[nH]c2ccccc12
[8]
  EC50: 13.1 µM (inconclusive)
[9]
  EC50: 5.49 µM (active)
[10]
  IC50: > 56.8 µM (not active)
[11]
  IC50: 4.97 µM (active)
[12]
  IC50: 9.7 µM (active)
[13]
  IC50: 37.1 µM (not active)
[14]
  IC50: 25.3 µM (inactive)
[15]
  IC50: 3.25 µM (active)

## CC(C)(C)c1ccc(OCC(=O)NNC(=S)NC(=O)c2ccccc2[N+](=O)[O-])c(Br)c1
[16]
  IC50: > 50 µM (active)
[17]
  CC50: > 40 µM (active)
[18]
  IC50: 56 µM (active)

## Cc1ccc(C(=O)c2coc3c2C(=O)C(=O)C(Cl)=C3Cl)cc1
[19]
  EC50: 6.17 µM (active)

## COc1cc2[nH]c(=S)n(CCCC(=O)N3CCN(c4cccc(Cl)c4)CC3)c(=O)c2cc1OC
[20]
  IC50: 2.36 µM (not active)

## COc1ccc(CC(=O)Nc2cccc(-c3nnc(-c4cccc(C)c4)o3)c2)cc1OC
[21]
  EC50: 15 µM (active)
[22]
  EC50: 6.16 µM (active)
[23]
  EC50: 118 µM (active)
[24]
  IC50: 1.76 µM (active)
[25]
  IC50: 5.21 µM (active)
[26]
  EC50: 29.5 µM (inactive)
[27]
  IC50: 2.35 µM (active)
[28]
  AC50: 2.47 µM (active)
[29]
  AC50: 47.6 µM (active)
[30]
  AC50: 8.16 µM (active)
[31]
  AC50: 10.5 µM (active)

## COc1ccccc1CCNCc1ccc(OC)c(OCc2ccccc2)c1
[32]
  IC50: 9.05 µM (active)
[33]
  IC50: 1.97 µM (active)
[34]
  AC50: 2.11 µM (active)
[35]
  AC50: 54.1 µM (active)
[36]
  AC50: > 70 µM (inactive)
[37]
  AC50: > 70 µM (inactive)
